Where a name gives a salt, the structure may show the parent alone.
Q: For `CC1(C)C(=O)N(c2ccc(C#N)c(Cl)c2)C(=S)N1c1ccc(OC2CCNCC2)cc1` (as salt: hydrochloride) [Compound 7, 2-Chloro-4-(4,4-dimethyl-5-oxo-3-(4-(piperidin-4-yloxy)phenyl)-2-thioxoimidazolidin-1-yl)benzonitrile hydrochloride], which melting point is on record?
A: > 300 °C

Q: With `CN1CCC(Oc2ccc(N3C(=S)N(c4ccc(C#N)c(Cl)c4)C(=O)C3(C)C)cc2)CC1` (as salt: hydrochloride) [Compound 8, 2-Chloro-4-(4,4-dimethyl-3-(4-((1-methylpiperidin-4-yl)oxy)phenyl)-5-oxo-2-thioxoimidazolidin-1-yl)benzonitrile hydrochloride] as the molecule, how does the melting point read?
A: 251.7 °C

Q: Which melting point does the source give for `CC1(C)C(=O)N(c2ccc(C#N)c(Cl)c2)C(=S)N1c1ccc(OC2CCNCC2)nc1` (as salt: hydrochloride) [Compound 9, 2-Chloro-4-(4,4-dimethyl-5-oxo-3-(6-(piperidin-4-yloxy)pyridin-3-yl)-2-thioxoimidazolidin-1-yl)benzonitrile hydrochloride] here?
A: 216.5 °C

Q: Which melting point does the source give for `CN1CCC(Oc2ccc(N3C(=S)N(c4ccc(C#N)c(Cl)c4)C(=O)C3(C)C)cn2)CC1` (as salt: hydrochloride) [Compound 10, 2-Chloro-4-(4,4-dimethyl-3-(6-((1-methylpiperidin-4-yl)oxy)pyridin-3-yl)-5-oxo-2-thioxoimidazolidin-1-yl)benzonitrile hydrochloride] here?
A: 220.9 °C

Q: With `N#Cc1ccc(N2C(=O)C3(CCC3)N(c3ccc(OC4CCNCC4)nc3)C2=S)cc1Cl` (as salt: hydrochloride) [Compound 23, 2-Chloro-4-(8-oxo-5-(6-(piperidin-4-yloxy)pyridin-3-yl)-6-thioxo-5,7-diazaspiro[3.4]octan-7-yl)benzonitrile hydrochloride] as the molecule, how does the melting point read?
A: 260.1 °C

Q: For `CN1CCC(Oc2ccc(N3C(=S)N(c4ccc(C#N)c(Cl)c4)C(=O)C34CCC4)cn2)CC1` (as salt: hydrochloride) [Compound 24, 2-Chloro-4-(5-(6-((1-methylpiperidin-4-yl)oxy)pyridin-3-yl)-8-oxo-6-thioxo-5,7-diazaspiro[3.4]octan-7-yl)benzonitrile hydrochloride], which melting point is on record?
A: 239 °C

From patent US20190337924A1, “SUBSTITUTED HYDANTOIN AND THIOHYDANTOIN DERIVATIVES AS ANDROGEN RECEPTOR ANTAGONISTS” (Janssen Pharmaceutica NV, priority 2016, published 2019)
